The source of these data is patent US20240166664A1, “TRIHETEROCYCLIC COMPOUND, PREPARATION METHOD THEREFOR, AND APPLICATION THEREOF” (SHANGHAI APEIRON THERAPEUTICS COMPANY LIMITED, priority 2021, published 2024).

Read-outs that look alike come from different tables or passages of the source.

Assay [1] relates to NCI-H1373 cells. In words: Cell proliferation inhibition assay (CTG method). The assay is classed as cell-based, human. As to conditions: read-out: IC50 (nM) for NCI-H1373 cell viability.
In assay [2] the target is T1, PARP7 (Homo sapiens, UniProt Q7Z3E1).
T1 construct: purchased BPS 80527
T1 sequence (Q7Z3E1 1-657): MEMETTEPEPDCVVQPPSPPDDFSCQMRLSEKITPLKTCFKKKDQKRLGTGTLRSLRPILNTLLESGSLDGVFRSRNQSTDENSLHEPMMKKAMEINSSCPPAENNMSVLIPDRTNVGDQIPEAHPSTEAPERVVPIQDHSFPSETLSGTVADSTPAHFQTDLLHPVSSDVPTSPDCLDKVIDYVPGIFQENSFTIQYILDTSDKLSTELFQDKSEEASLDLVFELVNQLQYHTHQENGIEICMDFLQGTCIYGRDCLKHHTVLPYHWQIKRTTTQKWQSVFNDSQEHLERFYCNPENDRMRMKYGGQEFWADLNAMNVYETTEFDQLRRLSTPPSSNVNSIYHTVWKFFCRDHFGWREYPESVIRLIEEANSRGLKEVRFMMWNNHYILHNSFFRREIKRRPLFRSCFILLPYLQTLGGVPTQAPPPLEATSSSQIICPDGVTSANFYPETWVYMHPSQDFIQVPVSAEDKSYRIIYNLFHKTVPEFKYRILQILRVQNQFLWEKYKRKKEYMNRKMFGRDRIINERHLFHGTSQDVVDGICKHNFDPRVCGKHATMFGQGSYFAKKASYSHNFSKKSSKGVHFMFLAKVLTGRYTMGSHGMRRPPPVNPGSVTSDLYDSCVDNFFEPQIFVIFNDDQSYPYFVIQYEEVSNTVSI
In words: Test of inhibitory activity against PARP7 enzyme (PARP7 FLAG-tag, Probe A, time-resolved fluorescence). The class given is biochemical. As to conditions: PARP7 12 nM, Probe A 2 nM, 1 hr room temperature.

[3] abbreviates: Homo sapiens, NCI-H1373, 144 h, NCI-H1373 cells, 6 days incubation, CTG method.

By IC50 is commonly meant the concentration that inhibits the measured activity by half. On to `C[C@@H](COCCC(=O)N1CCN2c3ncc(C(F)(F)F)cc3CCC2C1)Nc1cn[nH]c(=O)c1C(F)(F)F` (stereo partly shown) [Compound 32], for which the concentration for half-maximal inhibition (IC50) in assay [1] (setting [3]) was under 100 nM; in assay [2] it was under 0.01 µM.
Turning to `C[C@@H](COCCC(=O)N1CCN2c3ncc(C(F)(F)F)cc3CC[C@@H]2C1)Nc1cn[nH]c(=O)c1C(F)(F)F` (single isomer, unassigned) [Compound 46], the values for the IC50 in assay [1] (setting [3]) and in assay [2] were 100 to 500 nM and under 0.01 µM, respectively.
The like results for `C[C@@H](COCCC(=O)N1CCN2c3ncc(C(F)(F)F)cc3C(=O)OC[C@@H]2C1)Nc1cn[nH]c(=O)c1C(F)(F)F` [Compound 4, (S)-9-(3-((S)-2-((6-oxo-5-(trifluoromethyl)-1,6-dihydropyridazin-4-yl)amino)propoxy)propionyl)-3-(trifluoromethyl)-7,7a, 8,9,10,11-hexahydro-5H-pyrazino[2,1-c]pyrido[2,3-e][1,4]oxazin-5-one] were, in that order, over 5000 nM and under 0.01 µM.
Regarding `C[C@@H](COC[C@H](O)C(=O)N1CCN2c3ncc(C(F)(F)F)cc3C=C[C@@H]2C1)Nc1cn[nH]c(=O)c1C(F)(F)F` [Compound 71], the half-inhibitory concentration (IC50) is under 100 nM in assay [1] (setting [3]) and under 0.01 µM in assay [2].
The corresponding values for `C[C@@H](COC[C@@H](F)C(=O)N1CCN2c3ncc(C(F)(F)F)cc3N(C)C(=O)[C@@H]2C1)Nc1cn[nH]c(=O)c1C(F)(F)F` [Compound 65, (S)-8-((R)-2-fluoro-3-((S)-2-((6-oxo-5-(trifluoromethyl)-1,6-dihydropyridazin-4-yl)amino)propoxy)propionyl)-5-methyl-3-(trifluoromethyl)-7,8,9, 10-tetrahydro-5H-pyrazino[1,2-a]pyrido[3,2-e]pyrazin-6(6aH)-one] are under 100 nM and under 0.01 µM.
Turning to `C[C@@H](COC[C@@H](O)C(=O)N1CCN2c3ncc(C(F)(F)F)cc3C=C[C@@H]2C1)Nc1cn[nH]c(=O)c1C(F)(F)F` [Compound 72], the half-inhibitory concentration (IC50) in assay [1] (setting [3]) was under 100 nM; in assay [2], under 0.01 µM.
Turning to `C[C@@H](COCCC(=O)N1CCN2c3ncc(C(F)(F)F)cc3N(C)CCC2C1)Nc1cn[nH]c(=O)c1C(F)(F)F` (stereo partly drawn) [Compound 43, 5-((((2S)-1-(3-(5-methyl-3-(trifluoromethyl))-6,7,7a, 8,10,11-hexahydropyrazino[1,2-d]pyrido[3,2-b] [1,4]diazepine-9(5H)-yl)-3-oxopropoxy)prop-2-yl)amino)-4-(trifluoromethyl)pyridazin-3(2H)-one], the half-maximal inhibitory concentration (IC50) was 100 to 500 nM in assay [1] (setting [3]) and under 0.01 µM in assay [2].
As for `C[C@@H](COCCC(=O)N1CCN2c3ncc(C(F)(F)F)cc3OCC[C@H]2C1)Nc1cn[nH]c(=O)c1C(F)(F)F` [Compound 29, 5-(((S)-1-(3-oxo-3-((S)-3-(trifluoromethyl)-6,7,7a, 8,10,11-hexahydro-9H-pyrazino[1,2-d]pyrido[3,2-b][1,4]oxazepan-9-yl)propoxy)prop-2-yl)amino)-4-(trifluoromethyl)pyridazin-3(2H)-one], the IC50 in assay [1] (setting [3]) is under 100 nM; in assay [2], under 0.01 µM.
Consider `C[C@@H](COCCC(=O)N1CCN2c3ncc(C(F)(F)F)cc3N(CCO)C(=O)[C@@H]2C1)Nc1cn[nH]c(=O)c1C(F)(F)F` [Compound 41, (S)-5-(2-hydroxyethyl)-8-(3-((S)-2-((6-oxo-5-(trifluoromethyl)-1,6-dihydropyridazin-4-yl)amino)propoxy)propionyl)-3-(trifluoromethyl)-7,8,9,10-tetrahydro-5H-pyrazino[1,2-a]pyrido[3,2-e]pyrazino-6(6aH)-one], for which the results for the concentration for half-maximal inhibition (IC50) in assay [1] (setting [3]) and in assay [2] were 500 to 5000 nM and under 0.01 µM, respectively.
For `C[C@@H](COCCC(=O)N1CCN2c3ncc(C(F)(F)F)c(C(F)F)c3OCC[C@H]2C1)Nc1cn[nH]c(=O)c1C(F)(F)F` [Compound 62, 5-(((S)-1-(3-((S)-4-(difluoromethyl)-3-(trifluoromethyl)-6,7,7a, 8, 10, 11-hexahydro-9H-pyrazino[1,2-d]pyrido[3,2-b][1, 4]oxazepane-9-yl)-3-oxypropoxy)prop-2-yl)amino)-4-(trifluoromethyl)pyridazin-3(2H)-one], in assay [1] (setting [3]), the IC50 is 100 to 500 nM.
In the case of `[2H]C([2H])([2H])N1C(=O)[C@@H]2CN(C(=O)CCOC[C@H](C)Nc3cn[nH]c(=O)c3C(F)(F)F)CCN2c2ncc(C(F)(F)F)cc21` [Compound 39, (s)-5-(methyl-D3)-8-(3-((S)-2-((6-oxo-5-(trifluoromethyl)-1,6-dihydropyridazin-4-yl)amino)propoxy)propionyl)-3-(trifluoromethyl)-7,8,9,10-tetrahydro-5H-pyrazino[1,2-a]pyrido[3,2-e]pyrazino-6(6aH)-one], the concentration for half-maximal inhibition (IC50) in assay [1] (Homo sapiens, NCI-H1373, 144 h) was under 100 nM.
In turn, `C[C@@H](COCCC(=O)N1CCN2c3ncc(C(F)(F)F)cc3NC(C)(C)[C@H]2C1)Nc1cn[nH]c(=O)c1C(F)(F)F` [Compound 76] displayed an IC50 in assay [2] of under 0.01 µM.
On to `C[C@@H](COCCC(=O)N1CCN2c3ncc(C(F)(F)F)cc3NC(=O)[C@@H]2C1)Nc1cn[nH]c(=O)c1C(F)(F)F` [Compound 8, (S)-8-(3-((S)-2-((6-oxo-5-(trifluoromethyl)-1,6-dihydropyridazin-4-yl)amino)propoxy)propionyl)-3-(trifluoromethyl)-7,8,9,10-tetrahydro-5H-pyrazino[1,2-a]pyrido[3,2-e]pyrazin-6(6aH)-one], for which, in assay [1] (Homo sapiens, NCI-H1373, 144 h), the half-maximal inhibitory concentration (IC50) lay within 100 to 500 nM.
On to `C[C@@H](COCCC(=O)N1CCN2c3ncc(C(F)(F)F)cc3COC[C@H]2C1)Oc1cn[nH]c(=O)c1C(F)(F)F` [Compound 69, 5-(((S)-1-(3-oxo-3-((R)-3-(trifluoromethyl)-7a, 8, 10, 11-tetrahydro-5H-pyrazino[2,1-c]pyrido[2,3-e][1, 4]oxazepane-9(7H)-yl)propoxy)prop-2-yl)oxy)-4-(trifluoromethyl)pyridazin-3(2H)-one], for which, in assay [1] (setting [3]), the IC50 was under 100 nM.
With `CC(COCC(O)C(=O)N1CCN2c3ncc(C(F)(F)F)cc3CCC2C1)Nc1cn[nH]c(=O)c1C(F)(F)F` (stereo not shown) [Compound 68], the IC50 in assay [1] (NCI-H1373 cells, 6 days incubation, CTG method) is under 100 nM.
`C[C@@H](COCCC(=O)N1CCN2c3ncc(C(F)(F)F)cc3N(C)C(=O)[C@@H]2C1)Nc1cn[nH]c(=O)c1C(F)(F)F` [Compound 33, (S)-5-methyl-8-(3-((S)-2-((6-oxo-5-(trifluoromethyl)-1,6-dihydropyridazin-4-yl)amino)propoxy)propionyl)-3-(trifluoromethyl)-7,8,9,10-tetrahydro-5H-pyrazino[1,2-a]pyrido[3,2-e]pyrazin-6(6aH)-one]: in assay [1] (Homo sapiens, NCI-H1373, 144 h), the IC50 is under 100 nM.
With `C[C@@H](COCCC(=O)N1CCN2c3ccc(C(F)(F)F)cc3N(C)C(=O)[C@@H]2C1)Nc1cn[nH]c(=O)c1C(F)(F)F` [Compound 49], the 50% inhibitory concentration (IC50) in assay [1] (setting [3]) is over 5000 nM.
Turning to `C[C@@H](COCCC(=O)N1CCN2c3ncc(C(F)(F)F)cc3NC(=O)[C@H]2C1)Nc1cn[nH]c(=O)c1C(F)(F)F` [Compound 7, (R)-8-(3-((S)-2-((6-oxo-5-(trifluoromethyl)-1,6-dihydropyridazin-4-yl)amino)propoxy)propionyl)-3-(trifluoromethyl)-7,8,9,10-tetrahydro-5H-pyrazino[1,2-a]pyrido[3,2-e]pyrazin-6(6aH)-one], the IC50 in assay [1] (Homo sapiens, NCI-H1373, 144 h) lay in the range of 500 to 5000 nM.
With `C[C@@H](COCCC(=O)N1CCN2c3ncc(C(F)(F)F)cc3N(C)C(=O)[C@H]2C1)Nc1cn[nH]c(=O)c1C(F)(F)F` [Compound 54, (R)-5-methyl-8-(3-((S)-2-((6-oxo-5-(trifluoromethyl)-1,6-dihydropyridazin-4-yl)amino)propoxy)propionyl)-3-(trifluoromethyl)-7,8,9, 10-tetrahydro-5H-pyrazino[1,2-a]pyrido[3,2-e]pyrazin-6(6aH)-one], the concentration for half-maximal inhibition (IC50) in assay [1] (Homo sapiens, NCI-H1373, 144 h) was under 100 nM.
With `C[C@@H]1CN2c3ncc(C(F)(F)F)cc3OC[C@H]2CN1C(=O)CCOC[C@H](C)Nc1cn[nH]c(=O)c1C(F)(F)F` [Compound 24, 5-(((S)-1-(3-((6aR,9R)-9-methyl-3-(trifluoromethyl)-6a, 7,9,10-tetrahydropyrazino[1,2-d]pyrido[3,2-b][1,4]oxazin-8(6H)-yl)-3-oxypropoxy)prop-2-yl)amino)-4-(trifluoromethyl)pyridazin-3(2H)-one], the concentration for half-maximal inhibition (IC50) in assay [1] (setting [3]) lay within 100 to 500 nM.
On to `CC(COCCC(=O)N1CCN2c3ncc(C(F)(F)F)cc3CN(C)C(=O)C2C1)Nc1cn[nH]c(=O)c1C(F)(F)F` [Compound 57, (R)-6-methyl-9-(3-((S)-2-((6-oxo-5-(trifluoromethyl)-1,6-dihydropyridazin-4-yl)amino)propoxy)propionyl)-3-(trifluoromethyl)-5,6,8,9, 10, 11-hexahydropyrazino[1,2-a]pyrido[3,2-f][1, 4]diazepan-7(7aH)-one], for which the IC50 in assay [1] (setting [3]) was in the range of 500 to 5000 nM.
On to `CC(COCC(O)C(=O)N1CCN2c3ncc(C(F)(F)F)cc3CCC2C1)Nc1cn[nH]c(=O)c1C(F)(F)F` (stereo not shown) [Compound 67], for which the IC50 in assay [1] (setting [3]) was under 100 nM.
